Test results reported in ChEMBL document CHEMBL1201862, “PubChem BioAssay data set” (2004).
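Following 48 hours of exposure in 96-well plates, responses at five concentrations were used to interpolate endpoints linearly. GI50: concentration for 50% inhibition of growth.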 The source made the active and inactive calls. Rule as the data show it: active = GI50 up to about 1.1 µM and inactive = higher.

Key:
Experiment in all cases: inhibition of tumour cell growth, NCI panel, 48 h
HL-60 = test system: HL-60
HCT-116 = test system: HCT-116
SN12C = test system: SN12C
NCI-H460 = test system: NCI-H460
MCF7 = test system: MCF7
CCRF-CEM = test system: CCRF-CEM
HOP-92 = test system: HOP-92
SK-MEL-2 = test system: SK-MEL-2
TK-10 = test system: TK-10
RPMI-8226 = test system: RPMI-8226
SK-MEL-5 = test system: SK-MEL-5
Hs-578T = test system: Hs-578T
BT-549 = test system: BT-549
Malme-3M = test system: Malme-3M
UACC-257 = test system: UACC-257
UO-31 = test system: UO-31
U-251 = test system: U-251
OVCAR-4 = test system: OVCAR-4
T47D = test system: T47D
ACHN = test system: ACHN

| SMILES | GI50 (HL-60) | GI50 (HCT-116) | GI50 (SN12C) | GI50 (NCI-H460) | GI50 (MCF7) | GI50 (CCRF-CEM) | GI50 (HOP-92) | GI50 (SK-MEL-2) | GI50 (TK-10) | GI50 (RPMI-8226) | GI50 (SK-MEL-5) | GI50 (Hs-578T) | GI50 (BT-549) | GI50 (Malme-3M) | GI50 (UACC-257) | GI50 (UO-31) | GI50 (U-251) | GI50 (OVCAR-4) | GI50 (T47D) | GI50 (ACHN) |
| --- | --- | --- | --- | --- | --- | --- | --- | --- | --- | --- | --- | --- | --- | --- | --- | --- | --- | --- | --- | --- |
| CC(C)NC(=O)CN1CCN(C2=CC(=O)c3c(O)ccc(O)c3C2=O)CC1 | 2.59 µM (inactive) | 2.96 µM (inactive) | 14.5 µM (inactive) | 13 µM (inactive) | 2.71 µM (inactive) | 8.65 µM (inactive) | 21.9 µM (inactive) | 16.6 µM (inactive) | 17.1 µM (inactive) | 24.9 µM (inactive) | 2.58 µM (inactive) | 25.9 µM (inactive) | 17.7 µM (inactive) | 2.22 µM (inactive) | 7.18 µM (inactive) | 18.3 µM (inactive) | 19.9 µM (inactive) | 7.45 µM (inactive) | 8.69 µM (inactive) | 21.2 µM (inactive) |
| NC1=Nc2ccccc2Sc2nncn21 | > 100 µM (inactive) | > 100 µM (inactive) | > 100 µM (inactive) | > 100 µM (inactive) | > 100 µM (inactive) | > 100 µM (inactive) | > 100 µM (inactive) | > 100 µM (inactive) | > 100 µM (inactive) | > 100 µM (inactive) | > 100 µM (inactive) | > 100 µM (inactive) | > 100 µM (inactive) | > 100 µM (inactive) | > 100 µM (inactive) | > 100 µM (inactive) | > 100 µM (inactive) | > 100 µM (inactive) | > 100 µM (inactive) | > 100 µM (inactive) |
| O=C(O)c1nc2ccc(Cl)cc2[nH]c1=O | > 100 µM (inactive) | > 100 µM (inactive) | > 100 µM (inactive) | > 100 µM (inactive) | > 100 µM (inactive) | > 100 µM (inactive) | > 100 µM (inactive) | > 100 µM (inactive) | > 100 µM (inactive) | > 100 µM (inactive) | > 100 µM (inactive) | > 100 µM (inactive) | > 100 µM (inactive) | > 100 µM (inactive) | > 100 µM (inactive) | 46.8 µM (inactive) | > 100 µM (inactive) | > 100 µM (inactive) | > 100 µM (inactive) | > 100 µM (inactive) |
| O=C1C=C(C2=C(C3=CC(=O)c4ccccc4C3=O)C(=O)c3ccccc3C2=O)C(=O)c2ccccc21 | 1.21 µM (inactive) | 4.84 µM (inactive) | 7.26 µM (inactive) | 14.8 µM (inactive) | 7.69 µM (inactive) | 0.286 µM (active) | 2.45 µM (inactive) | 17.2 µM (inactive) | 6.21 µM (inactive) | 3.48 µM (inactive) | 9.4 µM (inactive) | 11.5 µM (inactive) | 14.6 µM (inactive) | 2.11 µM (inactive) | 10.5 µM (inactive) | 2.85 µM (inactive) | 4.48 µM (inactive) | 6.03 µM (inactive) | 6.19 µM (inactive) | 17.9 µM (inactive) |
| CC(=O)Nc1cc(Cl)cc(Cl)c1O | > 100 µM (inactive) | > 100 µM (inactive) | > 100 µM (inactive) | > 100 µM (inactive) | > 100 µM (inactive) | > 100 µM (inactive) | > 100 µM (inactive) | > 100 µM (inactive) | > 100 µM (inactive) | > 100 µM (inactive) | > 100 µM (inactive) | > 100 µM (inactive) | > 100 µM (inactive) | > 100 µM (inactive) | > 100 µM (inactive) | > 100 µM (inactive) | > 100 µM (inactive) | > 100 µM (inactive) | > 100 µM (inactive) | > 100 µM (inactive) |
| C[N+]12CCCCC1C(CN1C(=O)c3ccccc3C1=O)CCC2 (stereo not given) | > 100 µM (inactive) | > 100 µM (inactive) | > 100 µM (inactive) | > 100 µM (inactive) | > 100 µM (inactive) | > 100 µM (inactive) | > 100 µM (inactive) | > 100 µM (inactive) | > 100 µM (inactive) | > 100 µM (inactive) | > 100 µM (inactive) | > 100 µM (inactive) | > 100 µM (inactive) | > 100 µM (inactive) | > 100 µM (inactive) | > 100 µM (inactive) | > 100 µM (inactive) | > 100 µM (inactive) | > 100 µM (inactive) | > 100 µM (inactive) |
| COP(=O)(OC)C12CCOCCN1c1ccccc1C2=O (stereo not given) | > 100 µM (inactive) | > 100 µM (inactive) | > 100 µM (inactive) | > 100 µM (inactive) | > 100 µM (inactive) | > 100 µM (inactive) | > 100 µM (inactive) | > 100 µM (inactive) | > 100 µM (inactive) | > 100 µM (inactive) | > 100 µM (inactive) | > 100 µM (inactive) | > 100 µM (inactive) | > 100 µM (inactive) | > 100 µM (inactive) | > 100 µM (inactive) | > 100 µM (inactive) | > 100 µM (inactive) | > 100 µM (inactive) | > 100 µM (inactive) |
| CCCCCCCCCCC/C=C(/C(=O)CCCO[Si](C)(C)C(C)(C)C)C(=O)OC | > 100 µM (inactive) | > 100 µM (inactive) | > 100 µM (inactive) | > 100 µM (inactive) | > 100 µM (inactive) | > 100 µM (inactive) | > 100 µM (inactive) | > 100 µM (inactive) | > 100 µM (inactive) | > 100 µM (inactive) | > 100 µM (inactive) | > 100 µM (inactive) | > 100 µM (inactive) | > 100 µM (inactive) | > 100 µM (inactive) | > 100 µM (inactive) | > 100 µM (inactive) | > 100 µM (inactive) | > 100 µM (inactive) | > 100 µM (inactive) |
| CCOC(=O)c1c(SC)nc(-c2ccc(Cl)cc2)sc1=N.[O-][Cl+3]([O-])([O-])O | 35 µM (inactive) | 23.1 µM (inactive) | 44.4 µM (inactive) | 26 µM (inactive) | 29 µM (inactive) | 39.9 µM (inactive) | 80.2 µM (inactive) | 20.2 µM (inactive) | 44.3 µM (inactive) | 37.2 µM (inactive) | 15.2 µM (inactive) | 27.9 µM (inactive) | 30 µM (inactive) | 20.5 µM (inactive) | 34.6 µM (inactive) | 33.8 µM (inactive) | 37.6 µM (inactive) | 30.8 µM (inactive) | 31.9 µM (inactive) | 40.1 µM (inactive) |
| CN(C)CCNc1ccc([N+](=O)[O-])c2sc3ccccc3c(=O)c12 | 2.66 µM (inactive) | 2.47 µM (inactive) | 4.46 µM (inactive) | 1.65 µM (inactive) | 3.41 µM (inactive) | 2.26 µM (inactive) | 3.84 µM (inactive) | 14.1 µM (inactive) | 12.3 µM (inactive) | 2.64 µM (inactive) | 8.63 µM (inactive) | 5.52 µM (inactive) | 2.1 µM (inactive) | 4.27 µM (inactive) | 6.28 µM (inactive) | 4.34 µM (inactive) | 3.48 µM (inactive) | 3.1 µM (inactive) | 13.7 µM (inactive) | 2.51 µM (inactive) |
